# Activity calls are given as the source filed them.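 The calls were made as follows: active = growth-inhibition EC50 no more than tenfold above the top tested dose; inconclusive = flat fit between 30% and 70% inhibition, or unreliable fit; inactive = EC50 more than tenfold above the top tested dose.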
# Tested on: E. coli NEB5alpha growth, BacTiter-Glo luminescence, 4 h
# Assay: antibacterial activity against E. coli NEB5alpha – luminescence, counter-screen for MEX-5/POS-1 RNA-binding inhibitor project, dose response (AID 1959);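 also: pUC19-transformed ampicillin-resistant cells grown in LB with ampicillin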
row,Compound,EC50
1,Cc1ccccc1NC(=O)/C(C#N)=C/c1ccc(-c2ccc(Cl)c(C(=O)O)c2)o1,> 11 µM (inactive)
2,CC1(C)CC(=O)C2=C(C1)OC(N)=C(C#N)C21C(=O)N2CCCc3cccc1c32 (stereo not given),> 11 µM (inactive)
3,COc1cc(O)c(C(=O)O)c(-c2cc(O)c(O)cc2C)c1,> 11 µM (inactive)
4,O=C(O)c1cc(O)c2c(c1)[C@H]([C@H]1c3cc(C(=O)O)cc(O)c3C(=O)c3c(O[C@@H]4O[C@H](CO)[C@@H](O)[C@H](O)[C@H]4O)cccc31)c1cccc(OC3O[C@H](CO)[C@@H](O)[C@H](O)[C@H]3O)c1C2=O (stereo not given in full),> 11 µM (inactive)
5,COCCNC(=O)C1Nc2ccc(OC(F)(F)F)cc2C2C=CCC12 (stereo not given),> 11 µM (inactive)
6,N#Cc1ccccc1CN1C(=O)S/C(=C/c2cccn2-c2ccc(C(=O)O)cc2)C1=O,> 11 µM (inactive)
7,O=C(O)c1ccc(-n2cccc2)cc1O,> 11 µM (inactive)
8,Cc1ccc(N=Cc2sc(O)c3ccccc23)c(C)c1,> 11 µM (inactive)
9,CN(C)c1cccc2c1c(NS(=O)(=O)c1cn(C)cn1)nn2C,> 11 µM (inactive)
10,COc1c(O)cc2oc(-c3ccc(O)c(O)c3)cc(=O)c2c1O,> 11 µM (inactive)
11,COC(=O)Cn1cc(C=C2C(=O)NC(=O)NC2=O)c2ccccc21,> 11 µM (inactive)
12,CS(=O)(=O)Oc1ccc2c(c1)O/C(=C\C=C\c1ccccc1)C2=O,> 11 µM (inactive)
13,N=c1c(S(=O)(=O)c2ccc(Cl)cc2)cc2c(=O)n3ccccc3nc2n1C1CCCC1,> 11 µM (inactive)
14,N#CC1=C(N)Oc2cc(O)c(Cl)cc2C1c1ccccc1F (stereo not given),> 11 µM (inactive)
15,CC1CCCN(c2nc3ccccc3nc2C(C#N)S(=O)(=O)c2cccs2)C1 (stereo not given),> 11 µM (inactive)
16,CN(C)S(=O)(=O)c1cccc(NC(=S)N/N=C/c2ccc(O)c(O)c2O)c1,> 11 µM (inactive)
17,COc1ccc(C2C(C#N)=C(N)OC3=C2C(=O)CC(C)C3)c(OC)c1OC (stereo not given),> 11 µM (inactive)
18,Oc1ccc(O)c(-c2cnns2)c1,> 11 µM (inactive)
19,CN(C)CCCN(C(=O)/C=C/c1cccs1)c1nc2ccc(F)cc2s1,> 11 µM (inactive)
20,FC(F)(F)c1cc(C(F)(F)F)n2nc(-c3sccc3-n3cccc3)cc2n1,> 11 µM (inactive)
21,O=C(N/N=C/c1ccc(-c2ccc([N+](=O)[O-])cc2)o1)c1cccnc1,> 11 µM (inactive)
22,COc1ccccc1C(=O)Nc1ccnn1C1CCN(C(C)CSC)CC1 (stereo not given),> 11 µM (inactive)
23,Oc1ccc(C[C@H]2NCCc3cc(O)c(O)cc32)cc1O,> 11 µM (inactive)
24,Cc1ccccc1-n1c(O)c(/C=N/NC(=O)c2ccccc2O)c(=O)[nH]c1=S,> 11 µM (inactive)

row,Compound,EC50
1,CC(=O)Nc1cccc(Oc2nc(-c3ccccn3)nc3ccccc23)c1,> 11 µM (inactive)
2,CCN(CC)c1ccc(/C=c2/sc3nnc(-c4ccccc4C)n3c2=O)cc1,> 11 µM (inactive)
3,COc1ccc(/C=c2\sc3nc(=O)c(C)nn3c2=O)c(OC)c1,> 11 µM (inactive)
4,O=C(O)c1cc(-n2cccc2)ccc1N1CCOCC1,> 11 µM (inactive)
5,N=c1c(C(=O)NCCN2CCOCC2)cc2c(=O)n3ccccc3nc2n1CCc1ccccc1,> 11 µM (inactive)
6,O=C(Nc1ccc(Br)cn1)c1ccc2nccnc2c1,> 11 µM (inactive)
7,Cc1nc2ccc(N3CCN(C)CC3)cc2nc1C,> 11 µM (inactive)
8,COc1cc(NCCCC(C)N)c2ncccc2c1 (stereo not given),> 11 µM (inactive)
9,COc1ccc2nc3ccccc3nc2c1NC(=O)c1ccc(Br)cc1,> 11 µM (inactive)
10,O=C(Nc1ccccc1)NC1(C(=O)NCc2ccc3c(c2)OCO3)CCCCC1,> 11 µM (inactive)
11,Cc1ccc(C(=O)Oc2oc(-c3ccccc3)nc2C=Nc2ccc(N(C)C)cc2)cc1,> 11 µM (inactive)
12,O=C(CN1CCC(n2nnc3cc(F)ccc32)CC1)NCCc1ccccc1,> 11 µM (inactive)
13,COc1ccc(NC(=O)c2ccc(NCCCN3CCOCC3)c([N+](=O)[O-])c2)cc1,> 11 µM (inactive)
14,O=C(c1ccccc1)[C@@H]1[C@@H]2C(=O)N(c3ccc(F)cc3)C(=O)[C@@H]2C2CCCN21 (stereo not given in full),> 11 µM (inactive)
15,O=C(O)CCc1ccc(-c2ccccc2)n1-c1ccc(C(=O)O)cc1,> 11 µM (inactive)
16,COc1ccccc1C(=O)C1CCCN(C(=O)c2cccnc2SC)C1 (stereo not given),> 11 µM (inactive)
17,CCN1C(=O)/C(=C\c2cccs2)C(C(=O)OC)=C1C,> 11 µM (inactive)
18,O=C(CN1C(=O)C2CC=C(Cl)CC2C1=O)NCc1ccccc1 (stereo not given),> 11 µM (inactive)
19,O=c1cc(-c2ccc(O)c(O)c2)oc2cc(O)cc(O)c12,> 11 µM (inactive)
20,CN1CCc2cc3c(c4c2[C@H]1[C@H](O)c1ccccc1-4)OCO3,> 11 µM (inactive)
21,Cc1ccc(S(=O)(=O)C(C#N)c2nc3ccccc3nc2N2CCC(C)CC2)cc1 (stereo not given),> 11 µM (inactive)
22,Nc1cccc2c1C(=O)N(Cc1nnc(-c3ccccc3Br)o1)C2=O,> 11 µM (inactive)
23,O=C(NNc1ccccc1)C(=O)NNS(=O)(=O)c1ccc([N+](=O)[O-])cc1,> 11 µM (inactive)
24,CCCOc1ccc(/C=c2\sc3nc(-c4ccco4)nn3c2=O)cc1OCC,> 11 µM (inactive)

row,Compound,EC50
1,C/C(=N\NC(=O)c1nnn(-c2nonc2N)c1-c1cccs1)c1cccc(O)c1,> 11 µM (inactive)
2,CCOP(=O)(OCC)C(Nc1cccc([N+](=O)[O-])c1)c1ccccc1 (stereo not given),> 11 µM (inactive)
3,CN1CCc2c(sc3c2C(=O)NC(c2ccccn2)N3)C1 (stereo not given),> 11 µM (inactive)
4,O=C1c2cccc3c(N4CCCCC4)ccc(c23)C(=O)N1c1ccccn1,> 11 µM (inactive)
5,O=C(C1=NN(c2ccccc2)C2C(=O)N(c3ccccc3Cl)C(=O)C12)c1ccccc1 (stereo not given),> 11 µM (inactive)
6,CCSC1=N/C(=C\c2ccccc2)C(=O)N1,> 11 µM (inactive)
7,Nc1ncnc(NNC(=O)CNC(=O)c2c(F)cccc2Cl)c1[N+](=O)[O-],> 11 µM (inactive)
8,O=C(O)c1ccc2c(c1)[C@@H]1C=CC[C@@H]1[C@H](c1ccccn1)N2,> 11 µM (inactive)
9,N#C/C(=C\c1cc(O)c(O)c(O)c1)C(N)=O,> 11 µM (inactive)
10,Cc1ccc(-c2ccc(CCC(=O)O)n2-c2ccc(C(=O)O)cc2)cc1,> 11 µM (inactive)
11,O=C(O)c1ccc(S(=O)(=O)/N=C2\C=C(Nc3ccccc3F)C(=O)c3ccccc32)cc1,> 11 µM (inactive)
12,CCOc1cc(C(c2c(C)[nH][nH]c2=O)c2c(C)[nH][nH]c2=O)ccc1O,> 11 µM (inactive)
13,O=C(O)COc1ccc(/C=C/c2nc(-c3ccccc3O)n[nH]2)cc1,> 11 µM (inactive)
14,CC(=O)N1CCc2c(sc(NC(=O)C3CCCCC3)c2C(N)=O)C1,> 11 µM (inactive)
15,COc1ccc(NC(=O)Nc2ccc(OCc3ccccc3)cc2)cn1,> 11 µM (inactive)
16,O=C(O)c1ccccc1-n1c2ccccc2c2ccccc21,> 11 µM (inactive)
17,O=C1C(=Cc2cccn2-c2ccccc2)C(=O)c2ccccc21,> 11 µM (inactive)
18,CCCn1nc(C(=O)Nc2ccc(S(=O)(=O)Nc3nccs3)cc2)c2ccccc2c1=O,> 11 µM (inactive)
19,CC(C)c1nnc(N2C(=O)C(O)=C(C(=O)c3cccs3)C2c2ccccc2)s1 (stereo not given),> 11 µM (inactive)
20,COc1cc(OC)c(C2C(C#N)=C(N)OC3=C2C(=O)CC(C)C3)cc1OC (stereo not given),> 11 µM (inactive)
21,O=C(OCC(=O)c1ccco1)c1ccc2ncsc2c1,> 11 µM (inactive)
22,Cc1cc2c3c(c1)C(C)CC(C)(C)N3C(=O)C2=O (stereo not given),> 11 µM (inactive)
23,CC1=NN(C(N)=S)C(=O)C1N=Nc1c(Cl)cc([N+](=O)[O-])cc1Cl (stereo not given),> 11 µM (inactive)
24,O=C(Nc1ccnn1C1CCN(CC2CC=CCC2)CC1)c1ccccc1 (stereo not given),> 11 µM (inactive)

row,Compound,EC50
1,CC1=CC(C)(C)N2C(=O)C3(C(C#N)=C(N)OC4=C3C(=O)CC(C)(C)C4)c3cccc1c32 (stereo not given),> 11 µM (inactive)
2,O=c1[nH]c(=O)n(-c2ccc(F)cc2)c(O)c1C=Nc1ccccc1N1CCCC1,> 11 µM (inactive)
3,COc1cc(/C=C2/N=C(c3ccccc3)OC2=O)c(F)cc1OCc1ccccc1,> 11 µM (inactive)
4,O=C1C=CC(=O)C(C2=C3C(=O)N(CCc4ccccc4)CC(=O)N3CCC2)=C1,> 11 µM (inactive)
5,COc1ccc(/C=C2\SC(=S)N(CCC(=O)NC3CCCC3)C2=O)cc1OC,> 11 µM (inactive)
6,COc1cc2c(cc1OC)-c1c(OC)c(OC)cc3ccnc(c13)C2=O,> 11 µM (inactive)
7,O=C1C([N+](=O)[O-])=C(O)c2cccc3cccc1c23,> 11 µM (inactive)
8,O=S(=O)([N-]c1nc2ccccc2nc1-[n+]1ccc(CCCc2ccccc2)cc1)c1cccs1,> 11 µM (inactive)
9,CC1CN(c2nc3ccccc3nc2C(C#N)C(=O)NC2CCCCC2)CC(C)O1 (stereo not given),> 11 µM (inactive)
10,O=C(c1ccc(Br)s1)N1CCN(c2ccccn2)CC1,> 11 µM (inactive)
11,C=CCOc1ccc(C2C(C(=O)c3cccs3)=C(O)C(=O)N2c2nnc(C)s2)cc1 (stereo not given),> 11 µM (inactive)
12,COc1ccc(C=C2C(=O)OC(C)(C)OC2=O)cc1OC,> 11 µM (inactive)
13,CC(C)c1cc(C(N)=O)c(NC(=O)c2cccc(COc3ccc(Br)cc3)c2)s1,> 11 µM (inactive)
14,O=C(N/N=C\c1c(O)ccc2ccccc12)c1cncc(Br)c1,> 11 µM (inactive)
15,O=C(N/N=C/c1c(O)n(CCc2ccccc2)c(=O)[nH]c1=O)c1ccncc1,> 11 µM (inactive)
16,Cc1ccc(S(=O)(=O)N(CCCN2CCCC2=O)Cc2cc3c(C)ccc(C)c3[nH]c2=O)cc1,> 11 µM (inactive)
17,COc1ccc(OC)c(N=Cc2c(O)n(Cc3ccccc3)c(=S)[nH]c2=O)c1,> 11 µM (inactive)
18,COc1cc([C@H](Cc2ccccc2)NC(C)=O)oc(=O)c1,> 11 µM (inactive)
19,O=c1oc2c3c4c(cc2s1)CCCN4CCC3,> 11 µM (inactive)
20,Cc1ccc2[nH]c(O)c(N=Nc3ccccc3C)c2c1,> 11 µM (inactive)
21,N#C/C(=C\N1CCN(Cc2ccc3c(c2)OCO3)CC1)c1nc2ccccc2s1,> 11 µM (inactive)
22,Oc1ccc(/C=N/Nc2ccc(Cl)nn2)c(O)c1O,> 11 µM (inactive)
23,CC(=O)Nc1ccc(N/C=C/C(=O)c2ccc(C)o2)cc1,> 11 µM (inactive)
